{
  "source": "patent US11510931B2",
  "about": "“Compositions and methods for treating ophthalmic conditions” (MEDICON PHARMACEUTICALS, INC., priority 2016, dated 2022)",
  "assay": "Ocular biodistribution of PS after topical eye drops in New Zealand white rabbits (HPLC)",
  "format": "in vivo, rabbit",
  "conditions": "New Zealand white, rabbit, topical, topical",
  "method": "Results: The above PS formulation was administered topically as eye drops to the eyes of New Zealand white rabbits. The levels of PS in ocular tissues 1 h and 3 h later were determined by HPLC. The Table below summarizes the findings:\nResults: The above PS formulation was administered topically as eye drops to the eyes of New Zealand white rabbits. The levels of PS in ocular tissues at 2 h later were determined by HPLC. The table below summarizes the findings.\nResults: PS in this formulation was administered topically to the eyes of New Zealand white rabbits and its biodistribution was determined as above. The Table below summarizes the findings.\nResults: PS in this formulation was administered topically as eye drops to the eyes of New Zealand white rabbits. The biodistribution of PS in ocular tissues at 3 h and 6 h was determined by HPLC. The Table below summarizes the findings.\nBiodistribution of PS after topical administration: PS formulated in nanoparticles as above was administered topically as eye drops to New Zealand white rabbits. The biodistribution of PS in ocular tissues at the indicated time points post administration was determined by HPLC. The Table below summarizes the findings.\nBiodistribution of PS after topical administration: PS in the formulations was administered topically as eye drops to the eyes of New Zealand white rabbits. The levels of PS in ocular tissues at 0.5 h, 1 h and 3 h were determined by HPLC. The Table below summarizes the findings.\nTo assess the contribution of the foregoing formulations to the PK/biodistribution of PS in the ocular tissues, a solution of PS in pure propylene glycol (PG) was studied. PG is well tolerated by the eye. A 3.5% PS solution (in PG) as eye drops was administered topically to the eyes of New Zealand white rabbits and its 1-hour biodistribution was determined by HPLC. The Table summarizes the findings.",
  "key": {"[1]": {"conditions": "aqueous humor, 0.4% gellan gum in-situ gel, 2.4-3% PS, read-out: PS in Aqueous humor"}, "[2]": {"conditions": "ciliary body, 5.4 % PS, Poloxamer 407 in-situ gel, 5.4% PS, read-out: PS in Ciliary body"}, "[3]": {"conditions": "conjunctiva, 5.4 % PS, Poloxamer 407 in-situ gel, 5.4% PS, read-out: PS in Conjunctiva"}, "[4]": {"conditions": "conjunctiva, topical eye drops, mPEG-PLA nanoparticles, read-out: PS in Conjunctiva"}, "[5]": {"conditions": "cornea, topical eye drops, mPEG-PLA nanoparticles, read-out: PS in Cornea"}, "[6]": {"conditions": "iris, 5.4 % PS, Poloxamer 407 in-situ gel, 5.4% PS, read-out: PS in Iris"}, "[7]": {"conditions": "iris, topical eye drops, mPEG-PLA nanoparticles, read-out: PS in Iris"}, "[8]": {"conditions": "lacrimal gland, topical eye drops, mPEG-PLA nanoparticles, read-out: PS in Lacrimal gland"}, "[9]": {"conditions": "lens, 5.4 % PS, Poloxamer 407 in-situ gel, 5.4% PS, read-out: PS in Lens"}, "[10]": {"conditions": "retina, 3 % PS, sodium alginate/Tween 80 in-situ gel, 3% PS, read-out: PS in Retina"}, "[11]": {"conditions": "retina, 5.4 % PS, Poloxamer 407 in-situ gel, 5.4% PS, read-out: PS in Retina"}, "[12]": {"conditions": "sclera, 5.4 % PS, Poloxamer 407 in-situ gel, 5.4% PS, read-out: PS in Sclera"}, "[13]": {"conditions": "sclera, topical eye drops, mPEG-PLA nanoparticles, read-out: PS in Sclera"}, "[14]": {"conditions": "vitreous, 5.4 % PS, Poloxamer 407 in-situ gel, 5.4% PS, read-out: PS in Vitreous"}},
  "note": "Like-named read-outs stand apart in the source and are kept apart here.",
  "data": [
    {"smiles": "CCOP(=O)(OCC)OCCCCOC(=O)CC1=C(C)/C(=C/c2ccc([S+](C)[O-])cc2)c2ccc(F)cc21", "note": "(stereo not shown) [PS, phosphosulindac]", "values": [
      {"measurement": "concentration at 3 h", "setting": "[1]", "value": 0, "unit": "µM"},
      {"measurement": "concentration at 5 h", "setting": "[1]", "value": 0, "unit": "nM"},
      {"measurement": "concentration at 8 h", "setting": "[1]", "value": 0, "unit": "nM"},
      {"measurement": "concentration at 1 h", "setting": "choroid, 3.5 % PS solution (eye drops), topical eye drops, 3.5% PS solution in propylene glycol, read-out: PS in Choroid", "value": 0, "unit": "µM"},
      {"measurement": "concentration at 6 h", "setting": "choroid, 5.4 % PS, Poloxamer 407 in-situ gel, 5.4% PS, read-out: PS in Choroid", "value": 0, "unit": "µM"},
      {"measurement": "concentration at 2 h", "setting": "choroid, 0.5% gellan gum in-situ gel, 2.4~3% PS, read-out: PS in Choroid", "value": 0, "unit": "µM"},
      {"measurement": "concentration at 3 h", "setting": "[2]", "value": 0, "unit": "µM"},
      {"measurement": "concentration at 6 h", "setting": "[2]", "value": 0, "unit": "µM"},
      {"measurement": "concentration at 2 h", "setting": "ciliary body, 0.5% gellan gum in-situ gel, 2.4~3% PS, read-out: PS in Ciliary body", "value": 0, "unit": "µM"},
      {"measurement": "concentration at 1 h", "setting": "conjunctiva, 3.5 % PS solution (eye drops), topical eye drops, 3.5% PS solution in propylene glycol, read-out: PS in Conjunctiva", "value": 3.3, "unit": "µM"},
      {"measurement": "concentration at 3 h", "setting": "[3]", "value": 5.6, "unit": "µM"},
      {"measurement": "concentration at 6 h", "setting": "[3]", "value": 10.7, "unit": "µM"},
      {"measurement": "concentration at 0.5 h", "setting": "[4]", "value": 121, "unit": "µM"},
      {"measurement": "concentration at 1 h", "setting": "[4]", "value": 80.4, "unit": "µM"},
      {"measurement": "concentration at 2 h", "setting": "[4]", "value": 16.9, "unit": "µM"},
      {"measurement": "concentration at 8 h", "setting": "cornea, 3 % PS, sodium alginate/Tween 80 in-situ gel, 3% PS, read-out: PS in Cornea", "value": 0, "unit": "nM"},
      {"measurement": "concentration at 1 h", "setting": "cornea, 3.5 % PS solution (eye drops), topical eye drops, 3.5% PS solution in propylene glycol, read-out: PS in Cornea", "value": 38.8, "unit": "µM"},
      {"measurement": "concentration at 6 h", "setting": "cornea, 5.4 % PS, Poloxamer 407 in-situ gel, 5.4% PS, read-out: PS in Cornea", "value": 13.6, "unit": "µM"},
      {"measurement": "concentration at 0.5 h", "setting": "[5]", "value": 89.8, "unit": "µM"},
      {"measurement": "concentration at 1 h", "setting": "[5]", "value": 63.9, "unit": "µM"},
      {"measurement": "concentration at 2 h", "setting": "[5]", "value": 43.5, "unit": "µM"},
      {"measurement": "concentration at 3 h", "setting": "[6]", "value": 0, "unit": "µM"},
      {"measurement": "concentration at 6 h", "setting": "[6]", "value": 0, "unit": "µM"},
      {"measurement": "concentration at 0.5 h", "setting": "[7]", "value": 2.8, "unit": "µM"},
      {"measurement": "concentration at 1 h", "setting": "[7]", "value": 6.4, "unit": "µM"},
      {"measurement": "concentration at 2 h", "setting": "[7]", "value": 1.3, "unit": "µM"},
      {"measurement": "concentration at 2 h", "setting": "iris, 0.5% gellan gum in-situ gel, 2.4~3% PS, read-out: PS in Iris", "value": 0, "unit": "µM"},
      {"measurement": "concentration at 1 h", "setting": "lacrimal gland, 3.5 % PS solution (eye drops), topical eye drops, 3.5% PS solution in propylene glycol, read-out: PS in Lacrimal gland", "value": 0.1, "unit": "µM"},
      {"measurement": "concentration at 0.5 h", "setting": "[8]", "value": 7.5, "unit": "µM"},
      {"measurement": "concentration at 1 h", "setting": "[8]", "value": 3.5, "unit": "µM"},
      {"measurement": "concentration at 2 h", "setting": "[8]", "value": 0.6, "unit": "µM"},
      {"measurement": "concentration at 2 h", "setting": "lacrimal gland, 0.5% gellan gum in-situ gel, 2.4~3% PS, read-out: PS in Lacrimal Gland", "value": 0, "unit": "µM"},
      {"measurement": "concentration at 3 h", "setting": "[9]", "value": 0, "unit": "µM"},
      {"measurement": "concentration at 6 h", "setting": "[9]", "value": 0, "unit": "µM"},
      {"measurement": "concentration at 2 h", "setting": "lens, 0.5% gellan gum in-situ gel, 2.4~3% PS, read-out: PS in Lens", "value": 0, "unit": "µM"},
      {"measurement": "concentration at 1 h", "setting": "[10]", "value": 0, "unit": "µM"},
      {"measurement": "concentration at 3 h", "setting": "[10]", "value": 0, "unit": "µM"},
      {"measurement": "concentration at 5 h", "setting": "[10]", "value": 0, "unit": "nM"},
      {"measurement": "concentration at 8 h", "setting": "[10]", "value": 0, "unit": "nM"},
      {"measurement": "concentration at 1 h", "setting": "retina, 3.5 % PS solution (eye drops), topical eye drops, 3.5% PS solution in propylene glycol, read-out: PS in Retina", "value": 0, "unit": "µM"},
      {"measurement": "concentration at 3 h", "setting": "[11]", "value": 0, "unit": "µM"},
      {"measurement": "concentration at 6 h", "setting": "[11]", "value": 0, "unit": "µM"},
      {"measurement": "concentration at 2 h", "setting": "retina, 0.5% gellan gum in-situ gel, 2.4~3% PS, read-out: PS in Retina", "value": 0, "unit": "µM"},
      {"measurement": "concentration at 1 h", "setting": "sclera, 3.5 % PS solution (eye drops), topical eye drops, 3.5% PS solution in propylene glycol, read-out: PS in Sclera", "value": 0, "unit": "µM"},
      {"measurement": "concentration at 3 h", "setting": "[12]", "value": 0, "unit": "µM"},
      {"measurement": "concentration at 6 h", "setting": "[12]", "value": 0, "unit": "µM"},
      {"measurement": "concentration at 0.5 h", "setting": "[13]", "value": 32.1, "unit": "µM"},
      {"measurement": "concentration at 1 h", "setting": "[13]", "value": 17.1, "unit": "µM"},
      {"measurement": "concentration at 2 h", "setting": "[13]", "value": 4.7, "unit": "µM"},
      {"measurement": "concentration at 2 h", "setting": "sclera, 0.5% gellan gum in-situ gel, 2.4~3% PS, read-out: PS in Sclera", "value": 0, "unit": "µM"},
      {"measurement": "concentration at 1 h", "setting": "vitreous body, 3.5 % PS solution (eye drops), topical eye drops, 3.5% PS solution in propylene glycol, read-out: PS in Vitreous body", "value": 0, "unit": "µM"},
      {"measurement": "concentration at 3 h", "setting": "vitreous body, 3.5 % PS, topical eye drops, 3.5% PS/16% Vitamin E TPGS/mannitol/boric acid, read-out: PS in Vitreous body", "value": 0, "unit": "µM"},
      {"measurement": "concentration at 3 h", "setting": "[14]", "value": 0, "unit": "µM"},
      {"measurement": "concentration at 6 h", "setting": "[14]", "value": 0, "unit": "µM"},
      {"measurement": "concentration at 2 h", "setting": "vitreous, 0.5% gellan gum in-situ gel, 2.4~3% PS, read-out: PS in Vitreous", "value": 0, "unit": "µM"}
    ]}
  ]
}
